From patent US6693126B2, “Dihydroxyphenyl derivatives for hepatoprotection and treatment of liver diseases” (Choongwae Pharm. Co., Ltd., priority 2000, dated 2004)

Tests used:
[1] = tested on: Liver Injuries caused by Carbon Tetrachloride in Rats; experiment: Inhibitory effect against liver injuries caused by carbon tetrachloride in rats; assay type: in vivo, Rats (SD, male); conditions: CCl4 i.p., serum 24 h
Description: (§1) The carbon tetrachloride model(see, Philippe letteron et al., Biochemical Pharmacology, 39, 12, 2027-2034, 1990; Tips, 10, 1989; Kyoichi Kagawa et al., Japan J. Pharmacol., 42, 19-26, 1986; K. T. Liu and P. Lesca, Chem. Biol. Interactions, 41, 39-47, 1982; Richard O. et al., J. Biological Chemistry, 236, 2, 1961) is used most generally. This model has been established based on the internal phenomena that carbon tetrachloride is converted by cytochrome P-450 to a toxic free radical trichloromethyl(CCl3.), this radical is strongly bound to a thiol group of membrane protein on microsome of liver to form a lipid radical, which is then converted to a peroxy radical in the presence of oxygen to facilitate the peroxidation reaction of membrane lipid. That is, carbon tetrachloride suppresses protein biosynthesis in the liver, induces the increase of ALT and AST values in blood, and further causes histologically the centrilobular necrosis of the liver.
(§2) The degree of liver damage in the experimental animals was determined by measuring ALT and AST values in blood(see, Biol. Pharm. Bull., 20, 4, 381-385, 1997; Toxicology and Applied Pharmacology, 95, 1-11, 1988), and the hepatoprotective activity was calculated based on the following formula(see, Planta Medica, 55, 127-132, 1989). At this time, the hepatoprotective activity can also be calculated based on the same formula by replacing ALT value with AST value. [formula]
(§3) The hepatoprotective effect of the compound of the present invention was identified according to a known procedure(see, Philippe letteron et al., Biochemical Pharmacology, 39, 12, 2027-2034, 1990), and the protocol may be described in brief as follows.
(§4) Rats(SD, male, 180˜200 g) and mice(ICR, male, 27-35 g) used in the test were allowed in a condition of temperature 22±1° C. and relative humidity 60±5%. Feed and water were provided with no restriction while light and darkness were changed at an interval of 12 hours.
(§5) […] […] Each group included 8 test animals, and the test compound was orally administered once per animal. After 30 minutes(rat) or 1 hour(mouse) from the administration of the test compound, 10% carbon tetrachloride in corn oil solution was intraperitoneally injected in doses of 2 ml/kg in rats and 0.15 ml/kg in mice. As the control compounds, silymarin and DDB were selected.
(§6) The test animals were provided with no feed and sufficient water for 24 hours from the administration of carbon tetrachloride. […] This blood was centrifuged to obtain sera. ALT and AST values in the sera were measured using blood chemistry analyzer(Vitalab, Selectra II, Merck). The statistical significance for the test result of each group was examined based on Student's t-test, and the result was recognized as having a statistical significance when its P value is less than 5%.

[2] = tested on: Liver Injuries caused by Thioacetamide in Mice; experiment: Inhibitory effect against liver injuries caused by thioacetamide in mice; assay type: in vivo, Mice (ICR, male); conditions: thioacetamide i.p., dose 50 mg/kg p.o. once, serum 24 h
Description: The hepatoprotective effect of the compound of formula (1) was also identified by thioacetamide model(see, Masuda Yasusuke and Nakayama Nobue, Biochemical Pharmacology, 31, 17, 2713-2725, 1982; Liu Jie et al., Acta Pharmacologica Sinica, 16, 2, 97-102, 1995; Story D. L. et al., J. Tox. Environ. Health, 11, 483-501, 1983; Gomez-Lechon M. J. et al., Xenobiotica, 18, 6, 725-735, 1988) which is frequently used as an experimental model for liver injuries. This model has been established based on the phenomena that thioacetamide activated by P-450 S-oxidation inordinately increases the influx of calcium ion(Ca^++) into the liver cells, which in turn activates calcium ion-dependent phospholipase, protease and endonuclease, changes the cell frame through the calcium ion, exhausts ATP, and consequently destroys the liver cells. Thioacetamide also damages ureogenesis pathway in liver, and the metabolite of thioacetamide inhibits the transfer of RNA and makes the liver cell membranes unstable. A series of these activities results in the destruction of the liver cells, which in turn causes the increase of ALT and AST values in blood and also causes histologically the centrilobular necrosis.
as §2
The hepatoprotective effect of the compound of the present invention was identified according to a known procedure(see, Landon, E. J. et al., Biochemical Pharmacology, 35, 4, 697-705, 1986), and the protocol may be described in brief as follows.
(§7) Mice(ICR, male, 27˜35 g) as the test animal were allowed in a condition of temperature 22±1° C. and relative humidity 60±5%. Feed and water were provided with no restriction while light and darkness were changed at an interval of 12 hours.
The compound of the present invention was suspended in a solvent corn oil, and this suspension was administered in a dose of 10 ml/kg. Each group included 8 test animals, and the test compound was orally administered once per animal. After 1 hour from the administration of the test compound, thioacetamide solution(concentration: 90 mg/ml) in physiological saline was intraperitoneally injected in a dose of 1 ml/kg. As the control compounds, silymarin and DDB were selected.
as §6, with “thioacetamide.” for “carbon tetrachloride.”

[3] = tested on: Liver Injuries caused by Carbon Tetrachloride in Mice; experiment: Inhibitory effect against liver injuries caused by carbon tetrachloride in mice; assay type: in vivo, mice (ICR, male); conditions: CCl4 i.p., serum 24 h
Description: as §1, §2, §3, §4, §5, §6

[4] = tested on: Fulminant Liver Injuries caused by D-galactosamine/lipopolysaccharide in Mice; experiment: Inhibitory effect against fulminant liver injuries caused by D-galactosamine/lipopolysaccharide in mice (survival); assay type: in vivo, Mice (ICR, male); conditions: D-galactosamine 800 mg/kg + lipopolysaccharide 10 μg/kg i.p., dose 50 mg/kg oral once, observed 24 hours
Description: Further, the D-galactosamine/lipopolysaccharide model(see, Chris Galanos et al., Proc. Natl. Acad. Sci. USA, 76, 11, 5939-5943, 1979; Koji Hase et al., Biol. Pharm. Bull., 20, 4, 381-385, 1997; Junichi Nagakawa et al., The Journal of Pharmacology and Experimental Therapeutics, 264, 1, 1992; Nolan J. D., Hepatology, 1, 458-465, 1981; Wendel A., Methods Enzymol., 186, 675-680, 1990) which is also used in the present invention for the identification of hepatoprotective effect is based on the phenomena that liver injuries are caused by immune responses in mouse. It has been reported that such kind of liver injuries are caused not by direct tissue lesions due to the chemicals but by secretion of tumor necrosis factor(TNF)-α, reactive oxygen, etc.(see, Hishinuma I. et al., Hepatology, 12, 1187-1191, 1990, Hase K. et al., Phytother. Res., 10, 387-392, 1996). Here, D-galactosamine supresses protein biosynthesis and as well highly increases the sensitivity of the liver cells for lipopolysaccharide by reducing uridine nucleotide.
The hepatoprotective effect of the compound of the present invention was identified according to a known procedure(see, Koji Hase et al., Biol. Pharm. Bull., 20, 4, 381-385, 1997), and the protocol may be described in brief as follows.
as §7
The compound of the present invention was suspended in a solvent corn oil, and this suspension was administered in a dose of 10 ml/kg. Each group included 10 test animals, and the test compound was orally administered once per animal. After 1 hour from the administration of the test compound, D-galactosamine and lipopolysaccharide each of which dissolved in physiological saline were intraperitoneally injected at the same time in doses of 800 mg/kg and 10 μg/kg, respectively. As the control compounds, SY-640[N-methyl-N-(3,4-methylenedioxyphenacyl)acetamide; EP0350251], silymarin and DDB were selected.
The statistical significance for the test result of each group was examined based on Student's t-test, and the result was recognized as having a statistical significance when its P value is less than 5%.

C(=N\OCc1ccccn1)/c1ccc2c(c1)OCO2 [Compound 9, 1-[(2-pyridyl)methoxy]-1-aza-2-benzo[3,4-d]1,3-dioxolan-5-ylethene]
Inhibitory Effect against Liver Injuries (%) ALT ([1]; dose 1.9 mg/kg p.o. once): 61%
Inhibitory Effect against Liver Injuries (%) ALT ([1]; dose 5.6 mg/kg p.o. once): 60%
Inhibitory Effect against Liver Injuries (%) ALT ([1]; dose 16.7 mg/kg p.o. once): 56%
Inhibitory Effect against Liver Injuries (%) ALT ([1]; dose 50 mg/kg p.o. once): 75%
Inhibitory Effect against Liver Injuries (%) ALT [2]: 29%
Inhibitory Effect against Liver Injuries (%) ALT ([3]; dose 1.9 mg/kg p.o. once): 64%
Inhibitory Effect against Liver Injuries (%) ALT ([3]; dose 5.6 mg/kg p.o. once): 64%
Inhibitory Effect against Liver Injuries (%) ALT ([3]; dose 16.7 mg/kg p.o. once): 87%
Inhibitory Effect against Liver Injuries (%) ALT ([3]; dose 50 mg/kg p.o. once): 98%
Survival Rate (%) [4]: 90%

CC(=O)N(C)CC(=O)c1ccc2c(c1)OCO2 [SY-640, N-methyl-N-(3,4-methylenedioxyphenacyl)acetamide, reference compound]
Survival Rate (%) [4]: 90%
